# Source: patent US20220064195A1, “SYNTHETIC I2 IMIDAZOLINE RECEPTOR LIGANDS FOR PREVENTION OR TREATMENT OF HUMAN BRAIN DISORDERS” (Universitat de Barcelona, priority 2018, published 2022)
# Where “and” joins values, the source holds several entries; their conditions need not be identical. Equal entries are not always repeated. Where two headings read alike, the source gives them in different places.
# Key:
# [1] = predictive penetration in the CNS from PAMPA-BBB Pe
# Procedure: (§1) To evaluate the brain penetration of the different compounds, a parallel artificial membrane permeation assay for blood-brain barrier was used, following the method described by Di et al. (cf. Table 2). The in vitro permeability (Pe) of fourteen commercial drugs through lipid extract of porcine brain membrane together with the test compounds were determined. Commercial drugs and assayed compounds were tested using a mixture of PBS:EtOH (70:30).
# in vitro = conditions: pig, PAMPA
# Procedure: as §1
# I2-IR = assay: Competition binding against the selective I2-IR radioligand [3H]-2-BFI in membranes from post-mortem human frontal cortex; conditions: for [^3H]-2-BFI I2 binding affinity (pKi): membranes from post-mortem human frontal cortex, radioligand [3H]-2-BFI
# [2] = Dissolution of test compounds noted in the PAMPA-BBB assay (PBS:EtOH 70:30); format: physicochemical; parameters: key: *= poor dissolution
# Procedure: as §1
Structure (SMILES),CNS Prediction [1],Papp (in vitro) [×10⁻⁶ cm/s],[^3H]-2-BFI I2 binding affinity (pKi) (I2-IR),Selectivity I2/α2 (I2-IR; antilogarithm of the difference between pKi for I2-IR and pKi for α2-AR),dissolution [2],Selectivity I2/α2 (I2-IR)
"CCOP(=O)(OCC)[C@]1(c2ccccc2)N=C[C@H]2C(=O)N(C3CCCCC3)C(=O)[C@H]21 (racemic) [Compound I-07, Diethyl (1RS,3aSR,6aSR)-5-cyclohexyl-4,6-dioxo-1-phenyl-1,3a,4,5,6,6a-hexahydropyrrolo[3,4-c]pyrrole-1-phosphonate]","CNS+ (compounds of high BBB permeation (CNS+): Pe (10^−6 cm s^−1)>5,179)",25.9 ± 0.6,9.74 ± 0.29,–,–,–
"CCOP(=O)(OCC)[C@]1(c2ccccc2)N=C[C@H]2C(=O)N(c3ccccc3)C(=O)[C@H]21 (racemic) [Compound I-16, Diethyl (1RS,3aSR,6aSR)-4,6-dioxo-1,5-diphenyl-1,3a,4,5,6,6a-hexahydropyrrolo[3,4-c]pyrrole-1-phosphonate]","CNS+ (compounds of high BBB permeation (CNS+): Pe (10^−6 cm s^−1)>5,179)",7.8 ± 0.6,10.28 ± 0.37,–,–,–
"CCOP(=O)(OCC)[C@]1(c2ccccc2)N=C[C@H]2C(=O)N(c3ccc(OC)cc3)C(=O)[C@H]21 (racemic) [Compound I-22, Diethyl (1RS,3aSR,6aSR)-5-(4-methoxyphenyl)-4,6-dioxo-1-phenyl-1,3a,4,5,6,6a-hexahydropyrrolo[3,4-c]pyrrole-1-phosphonate]","CNS+/− (compounds of uncertain BBB permeation (CNS+/−): 5,179>Pe (10^−6 cm s^−1)>2,083)",3.9 ± 0.15,6.65 ± 1.27,–,–,–
"CCOP(=O)(OCC)[C@]1(C)N=C[C@H]2C(=O)N(C)C(=O)[C@H]21 (racemic) [Compound I-25, Diethyl (1RS,3aRS,6aRS)-1,5-dimethyl-4,6-dioxo-1,3a,4,5,6,6a-hexahydropyrrolo[3,4-c]pyrrole-1-phosphonate]","CNS+/− (compounds of uncertain BBB permeation (CNS+/−): 5,179>Pe (10^−6 cm s^−1)>2,083)",4.6 ± 0.7,8.57 ± 0.39,19,–,–
"O=C1[C@@H]2[C@@H](C=N[C@@]2(c2ccccc2)P(=O)(Oc2ccccc2)Oc2ccccc2)C(=O)N1c1ccccc1 (racemic) [Compound I-26, Diphenyl (1RS,3aSR,6aSR)-4,6-dioxo-1,5-diphenyl-1,3a,4,5,6,6a-hexahydropyrrolo[3,4-c]pyrrole-1-phosphonate]","CNS+/− (compounds of uncertain BBB permeation (CNS+/−): 5,179>Pe (10^−6 cm s^−1)>2,083)",2.3 ± 0.04,5.86 ± 1.22,–,I-26*,–
"CCOP(=O)(OCC)[C@]1(c2ccccc2)N=C[C@H]2C(=O)N(c3cccc([N+](=O)[O-])c3)C(=O)[C@H]21 (racemic) [Compound I-28, Diethyl (1RS,3aSR,6aSR)-5-(3-nitrophenyl)-4,6-dioxo-1-phenyl-1,3a,4,5,6,6a-hexahydropyrrolo[3,4-c]pyrrole-1-phosphonate]","CNS+/− (compounds of uncertain BBB permeation (CNS+/−): 5,179>Pe (10^−6 cm s^−1)>2,083)",4.5 ± 0.25,6.81 ± 0.27,–,I-28*,–
"CCOP(=O)(OCC)[C@]1(c2ccccc2)N=C[C@H]2C(=O)N(Cc3ccccc3)C(=O)[C@H]21 (racemic) [Compound I-29, Diethyl (1RS,3aSR,6aSR)-5-benzyl-4,6-dioxo-1-phenyl-1,3a,4,5,6,6a-hexahydropyrrolo[3,4-c]pyrrole-1-phosphonate]","CNS+ (compounds of high BBB permeation (CNS+): Pe (10^−6 cm s^−1)>5,179)",> 30,5.26 ± 0.22,–,I-29*,–
"CCOP(=O)(OCC)[C@]1(c2ccccc2)N=C[C@H]2C(=O)N(c3ccc(-c4ccccc4)cc3)C(=O)[C@H]21 (racemic) [Compound I-32, Diethyl (1RS,3aSR,6aSR)-5-(1,1′-biphenyl)-4-yl-4,6-dioxo-1-phenyl-1,3a,4,5,6,6a-hexahydropyrrolo[3,4-c]pyrrole-1-phosphonate]","CNS+ (compounds of high BBB permeation (CNS+): Pe (10^−6 cm s^−1)>5,179)",8.2 ± 0.3,7.90 ± 0.46,–,–,–
"CCOP(=O)(OCC)[C@]1(c2ccccc2)N=C[C@H]2C(=O)N(CCc3ccccc3)C(=O)[C@H]21 (racemic) [Compound I-33, Diethyl (1RS,3aSR,6aSR)-4,6-dioxo-5-phenethyl-1-phenyl-1,3a,4,5,6,6a-hexahydropyrrolo[3,4-c]pyrrole-1-phosphonate]","CNS+ (compounds of high BBB permeation (CNS+): Pe (10^−6 cm s^−1)>5,179)",6.2 ± 0.3,5.85 ± 0.18,–,–,182
"CCOP(=O)(OCC)[C@]1(c2ccccc2)N=C[C@H]2C(=O)N(c3ccc(Oc4ccccc4)cc3)C(=O)[C@H]21 (racemic) [Compound I-34, Diethyl (1RS,3aSR,6aSR)-4,6-dioxo-5-(4-phenoxyphenyl)-1-phenyl-1,3a,4,5,6,6a-hexahydropyrrolo[3,4-c]pyrrole-1-phosphonate]","CNS+ (compounds of high BBB permeation (CNS+): Pe (10^−6 cm s^−1)>5,179)",6.5 ± 0.02,6.96 ± 0.30,–,–,–
"CCOP(=O)(OCC)[C@]1(c2ccccc2)N=C[C@H]2C(=O)N(c3ccc(Br)cc3)C(=O)[C@H]21 (racemic) [Compound I-47, Diethyl (1RS,3aSR,6aSR)-5-(4-bromophenyl)-4,6-dioxo-1-phenyl-1,3a,4,5,6,6a-hexahydropyrrolo[3,4-c]pyrrole-1-phosphonate]","CNS+/− (compounds of uncertain BBB permeation (CNS+/−): 5,179>Pe (10^−6 cm s^−1)>2,083)",4.4 ± 0.4,–,–,I-47*,–
"CCOP(=O)(OCC)[C@]1(c2ccccc2)N=C[C@H]2C(=O)N(c3cc([N+](=O)[O-])ccc3C)C(=O)[C@H]21 (racemic) [Compound I-50, Diethyl (1RS,3aSR,6aSR)-5-(2-methyl-5-nitrophenyl)-4,6-dioxo-1-phenyl-1,3a,4,5,6,6a-hexahydropyrrolo[3,4-c]pyrrole-1-phosphonate]","CNS− (compounds of low BBB permeation (CNS−): Pe (10^−6 cm s^−1)<2,083)",1.4 ± 0.04,–,–,I-50*,–
"CCOP(=O)(OCC)[C@]1(c2ccccc2)N=C[C@H]2C(=O)N(c3cccc(C(F)(F)F)c3)C(=O)[C@H]21 (racemic) [Compound I-52, Diethyl (1RS,3aSR,6aSR)-4,6-dioxo-1-phenyl-5-[3-(trifluoromethyl)phenyl]-1,3a,4,5,6,6a-hexahydropyrrolo[3,4-c]pyrrole-1-phosphonate]","CNS+ (compounds of high BBB permeation (CNS+): Pe (10^−6 cm s^−1)>5,179)",6.9 ± 0.2,–,–,–,–
"CCOP(=O)(OCC)[C@]1(c2ccccc2)N=C[C@H]2C(=O)N(c3cccc(Cl)c3)C(=O)[C@H]21 (racemic) [Compound I-53, Diethyl (1RS,3aSR,6aSR)-5-(3-chlorophenyl)-4,6-dioxo-1-phenyl-1,3a,4,5,6,6a-hexahydropyrrolo[3,4-c]pyrrole-1-phosphonate]","CNS+/− (compounds of uncertain BBB permeation (CNS+/−): 5,179>Pe (10^−6 cm s^−1)>2,083)",3.7 ± 0.1,–,–,I-53*,–
"CCOP(=O)(OCC)[C@]1(c2ccccc2)N=C[C@H]2C(=O)N(CC)C(=O)[C@H]21 (racemic) [Compound I-54, Diethyl (1RS,3aSR,6aSR)-5-ethyl-4,6-dioxo-1-phenyl-1,3a,4,5,6,6a-hexahydropyrrolo[3,4-c]pyrrole-1-phosphonate]","CNS+/− (compounds of uncertain BBB permeation (CNS+/−): 5,179>Pe (10^−6 cm s^−1)>2,083)",3.7 ± 0.5,–,–,–,–
"CCOP(=O)(OCC)[C@]1(c2ccccc2)N=C[C@H]2C(=O)N(C(C)(C)C)C(=O)[C@H]21 (racemic) [Compound I-55, Diethyl (1RS,3aSR,6aSR)-5-(tert-butyl)-4,6-dioxo-1-phenyl-1,3a,4,5,6,6a-hexahydropyrrolo[3,4-c]pyrrole-1-phosphonate]","CNS+ (compounds of high BBB permeation (CNS+): Pe (10^−6 cm s^−1)>5,179)",6.3 ± 0.3,–,–,–,–
"CCOP(=O)(OCC)[C@]1(c2ccccc2)N=C[C@H]2C(=O)N(c3cccc4ccccc34)C(=O)[C@H]21 (racemic) [Compound I-56, Diethyl (1RS,3aSR,6aSR)-5-(naphth-1-yl)-4,6-dioxo-1-phenyl-1,3a,4,5,6,6a-hexahydropyrrolo[3,4-c]pyrrole-1-phosphonate]","CNS− (compounds of low BBB permeation (CNS−): Pe (10^−6 cm s^−1)<2,083)",1.4 ± 0.06,–,–,–,–
"CCOP(=O)(OCC)[C@@]1(Cc2ccccc2)N=C[C@H]2C(=O)N(C3CCCCC3)C(=O)[C@H]21 (racemic) [Compound I-57, Diethyl (1RS,3aSR,6aSR)-1-benzyl-5-cyclohexyl-4,6-dioxo-1,3a,4,5,6,6a-hexahydropyrrolo[3,4-c]pyrrole-1-phosphonate]","CNS+/− (compounds of uncertain BBB permeation (CNS+/−): 5,179>Pe (10^−6 cm s^−1)>2,083)",5.1 ± 0.01,–,–,–,–
"c1ccc2c(c1)OCC(C1=NCCN1)O2 (stereo not shown) [Idazoxan, reference compound]",–,–,7.27±0.07 and 7.41 ± 0.63,–,–,–
